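48-hour exposure; five concentrations; linearly interpolated endpoints. GI50 = concentration required for 50% inhibition of growth.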 Calls of active or inactive are those of the source. Cut-off read from the data, not from the text of the source: active = GI50 up to about 1.1 µM and inactive = higher.
Experiments:
Assay in all cases: DTP human tumour cell line panel, 48 h
SR = system: SR
NCI-H522 = system: NCI-H522
SF-295 = system: SF-295
HCC 2998 = system: HCC 2998
SK-MEL-28 = system: SK-MEL-28
K562 = system: K562
SN12C = system: SN12C
A549 = system: A549
MCF7 = system: MCF7
M14 = system: M14
KM12 = system: KM12
MDA-MB-435 = system: MDA-MB-435
PC-3 = system: PC-3
UACC-257 = system: UACC-257
TK-10 = system: TK-10
SW-620 = system: SW-620
SK-OV-3 = system: SK-OV-3
MDA-MB-231 = system: MDA-MB-231
UO-31 = system: UO-31
ACHN = system: ACHN

Measured: GI50

CCC1c2[nH]c3ccccc3c2C[C@H]2C(=O)NC(Cc3ccccc3)C(=O)N12 (stereo not given in full)
inactive: SR 21.2 µM | NCI-H522 22.9 µM | SF-295 24.4 µM | HCC 2998 26 µM | SK-MEL-28 40 µM | K562 31.4 µM | SN12C 28.5 µM | A549 30.1 µM | MCF7 34.9 µM | M14 27.9 µM | KM12 24.8 µM | MDA-MB-435 20.2 µM | PC-3 20.8 µM | UACC-257 18 µM | TK-10 23.7 µM | SW-620 35.6 µM | SK-OV-3 44.7 µM | MDA-MB-231 21 µM | UO-31 30.8 µM | ACHN 30.5 µM

CCCCCCCC/C=C\CCCCCCC(F)C(=O)O (stereo not given)
inactive: SR > 12.5 µM | NCI-H522 > 12.5 µM | SF-295 > 12.5 µM | HCC 2998 > 12.5 µM | SK-MEL-28 > 12.5 µM | K562 > 12.5 µM | SN12C > 12.5 µM | A549 > 12.5 µM | MCF7 > 12.5 µM | M14 > 12.5 µM | KM12 > 12.5 µM | MDA-MB-435 > 12.5 µM | PC-3 > 12.5 µM | UACC-257 > 12.5 µM | TK-10 > 12.5 µM | SW-620 > 12.5 µM | SK-OV-3 > 12.5 µM | MDA-MB-231 > 12.5 µM | UO-31 > 12.5 µM | ACHN > 12.5 µM

COC1=C(N=[N+]=[N-])C(=O)c2ncccc2C1=O
inactive: SR 2.36 µM | NCI-H522 1.9 µM | SF-295 15.6 µM | HCC 2998 17.1 µM | SK-MEL-28 14.3 µM | K562 2.84 µM | SN12C 15.5 µM | A549 16.6 µM | MCF7 1.82 µM | M14 3.73 µM | KM12 15.6 µM | MDA-MB-435 2.12 µM | PC-3 15.5 µM | UACC-257 4.34 µM | TK-10 10.9 µM | SW-620 1.95 µM | SK-OV-3 15.2 µM | MDA-MB-231 12.4 µM | UO-31 14.4 µM | ACHN 4.28 µM

C=C(C)CN(CC#N)CC(=C)C
inactive: SR > 100 µM | NCI-H522 > 100 µM | SF-295 > 100 µM | HCC 2998 > 100 µM | SK-MEL-28 > 100 µM | K562 > 100 µM | SN12C > 100 µM | A549 > 100 µM | MCF7 > 100 µM | M14 > 100 µM | KM12 > 100 µM | MDA-MB-435 > 100 µM | PC-3 > 100 µM | UACC-257 > 100 µM | TK-10 > 100 µM | SW-620 > 100 µM | SK-OV-3 > 100 µM | MDA-MB-231 > 100 µM | UO-31 > 100 µM | ACHN > 100 µM
